Test [1] addresses T1, GABAAR (α1β2γ2 L) in stably transfected HEK cells (Mus musculus, UniProt P22723+P62812+P63137).
T1 construct: expressed in transfected cells; host or cells: HEK 293 cells
Description: Rapid agonist application patch-clamp recording of GABAAR responses (patcherBotPharma). The format is cell-based. The following applies: rapid application of 1 mM GABA for 1 sec. On the procedure:
(§1) Recordings are from a lifted whole cell (left) and an outside-out patch using a 4 MΩ electrode (right), at −60 mV in 0 mM Mg^2+. […] Recordings are from a lifted whole cell (left, 1 s application) and an outside-out patch (right, 5 ms application).
(§2) cDNAs for mouse Gabra1, Gabrb2, and the long form of Gabrg2 were subcloned into the pAC156 plasmid, a generous gift from Albert Cheng. The cDNAs were driven by an EF1alpha promoter. A PGK promoter-driven puromycin resistance cassette was also present in pAC156; both cassettes were flanked by piggybac transposon arms. All three plasmids were co-transfected with the mPB piggybac transposase into HEK 293 cells, selected by puromycin, and sorted into single cells. Clones were assayed for Gabra1, Gabrb2, and Gabrg2 expression by immunofluorescence, and one clone was expanded for further study and use in this description herein. Trypsin was used to dissociate the cells and plated on the same coverslips, as mentioned above, 24-72 hours before experimentation (shorter time and less PDL for lifted cell, and the inverse for excised patches).
(§3) Whole-cell voltage-clamp recordings were performed with thin-walled borosilicate glass electrodes (3-6 MΩ, TW150E-4, World Precision Instruments) filled with solution containing (in mM) 110 Cs-gluconate, 30 CsCl, 5 HEPES, 4 NaCl, 0.5 CaCl2, 2 MgCl2, 5 BAPTA, 2 NaATP, 0.3 NaGTP (pH 7.35). The extracellular recording solution contained (in mM) 150 NaCl, 10 HEPES, 3 KCl, 0.5 CaCl2, 1 MgCl2, and 0.01 EDTA (pH 7.4). Whole cell recording from primary cortical neurons (examples showing alternative experiment paradigm in the supplemental) were obtained utilizing an internal solution, containing (in mM) 115 K-gluconate, 20 KCl, 10 HEPES, 2 Mg2ATP, 0.3 NaGTP, and 10 Na2Phosphocreatine (pH 7.35), and external solution stated above but with 1 mM CaCl2. The electrode cleaning solution (2% Tergazyme in water) was made fresh daily. Cleaned electrodes were washed in appropriate internal solution. All solutions were filtered (0.45 μm or 0.22 μm). Responses were recorded using a Multiclamp 700B (Molecular Devices), filtered at 10 kHz (−3 dB), and digitized at 20 kHz.
(§4) Whole-cell rapid solution exchange experiments were analyzed using custom algorithms (Matlab, Mathworks). The desensitization and deactivation time courses were fitted by exponential functions based on receptor type. For NMDAR desensitization and GABAAR deactivation, they were fit by one exponential function,
In this experimental run, the patcherBotPharma was programmed to collect four-phase recordings. During each phase, five technical replicate sweeps were collected, a 10 sec sweep with agonist applied for 0.5 sec. Following each set of recordings, the patch was blown off with high pressure and the open-tip exchange time was determined to validate the electrode positioning.

Test [2] deals with T2, GABAAR in stably expressing HEK cells (Mus musculus, UniProt P22723+P62812+P63137).
T2 construct: expressed in transfected cells; host or cells: HEK 293 cells
Description: cell-based.
Source text: FIGS. 5A through 5D provides various steps system 500 can perform to achieve a time-constant concentration response of deactivation of a cell receptor exposed to a drug. […] FIGS. 5A through 5D the individual steps in a flowchart illustrating the patcherBotPharma operation, timing, and success rate. After the one-time calibration and cell selection step 502, system 500 loops through and serially records from the selected cells in steps 504 through 514. Quality control measures are in place at steps 506, 508a, 508b, and 510 to terminate the current experiment and continue to the next iteration, as shown in FIG. 5A. System 500 can perform calibration and cell selection 502 manually such that the user selects one or more cells within a biological sample. In some instances, calibration and cell selection 502 can be performed automatically. For instance, calibration can be pre-programed and stored in memory 66 of controller 200. Alternatively, or in addition thereto, calibration can be automatically sensed by a combination of the manipulator assembly 120 and automated control of a microscope.
After quality control measures verify an appropriate seal between the pipette tip 110 and the cell target, system 500 can initiate the experimental protocol at step 512. […] Each phase of each experiment would start with the valves changing to the next set to be tested, with a wait step to allow for the solutions to be primed, followed by the collection of 10 replicates of the intended jump protocol.
as §2, §3
Whole-cell rapid solution exchange experiments were analyzed using custom algorithms (Matlab, Mathworks). The desensitization and deactivation time courses were fitted by exponential functions based on receptor type.

For test [3], the target named is T3, NMDAR (GluN1/GluN2A) in transiently transfected HEK cells (Rattus norvegicus, UniProt P35439+Q00959).
T3 construct: expressed in transfected cells; host or cells: HEK-293 cells (CRL 1573, ATCC); calcium phosphate transient transfection with GFP co-transfected
Briefly: Rapid agonist application patch-clamp recording of NMDAR responses (patcherBotPharma). It is filed as cell-based. The note with it: rapid application of 1 mM Glutamate for 1 sec; −40 mV. On the technique in general: Patch clamp records ionic current or voltage across a cell membrane.

Test [4] addresses T3, NMDAR (GluN1/GluN2A) in transiently transfected HEK cells. Described as above. The note with it: rapid application of 1 mM Glutamate for 1 sec; −60 mV. The format is cell-based. Here is the method:
as §1
HEK-293 cells (CRL 1573, ATCC; hereafter HEK cells) and a stable GABAAR-expressing cell line were cultured in DMEM (Cat #10566016, ThermoFisher Scientific) supplemented with 10% fetal bovine serum (FBS), 10 U/ml penicillin, and 10 lag/ml streptomycin and maintained at 5% CO2 in a 37° C. incubator. For use on the electrophysiology rig, heterologous cells were plated on poly-D-Lysine (PDL) coated glass coverslips (0.1-0.5 mg/mL, Warner Instruments). Transiently transfected recombinant receptors were expressed from complementary DNA (cDNA) encoding rat GluN1-1a (hereafter GluN1, U08261) and GluN2A (D13211). Calcium phosphate was used to transiently transfect HEK cells in a 24-well plate with 500 ng of cDNA at a ratio of 1:1:5 (GluN1:GluN2A:GFP). Four hours after transfection, NMDAR antagonists D,L-2amino-5-phosphonovalerate (200 μM, DL-APV) and 7-chlorokynurenic acid (200 μM) were added to the culture medium to decrease the cytotoxic effect of NMDAR expression.
as §3, §4
A series of pharmacology experiments were performed on GABAAR and NMDARs where rapid agonist application was applied to excised outside-out patches to assess patcherBotPharma performance on the minimum processes required in an experiment, described in more detail in Table 1).

Where [5] appears, read: 1 mM GABA for 0.5 sec, propofol-free GABA Control, concentration set 1.
[6] abbreviates: 1 mM GABA for 0.5 sec, propofol-free GABA Control, concentration set 2.
Where [7] appears, read: 0.5 μM PRO, 1 mM GABA for 0.5 sec, set 1.
Where [8] appears, read: 1 μM PRO, 1 mM GABA for 0.5 sec, set 2.
Setting [9] is: 2 μM PRO, 1 mM GABA for 0.5 sec, set 1.
Where [10] appears, read: 5 μM PRO, 1 mM GABA for 0.5 sec, set 2.
Where [11] appears, read: 10 μM PRO, 1 mM GABA for 0.5 sec, set 1.
The mark [12] stands for this setting: 20 μM PRO, 1 mM GABA for 0.5 sec, set 2.
[13] abbreviates: 50 μM PRO, 1 mM GABA for 0.5 sec, set 1.
Setting [14] is: 100 μM PRO, 1 mM GABA for 0.5 sec, set 2.

Several values for one entry are separate records, joined by “and”; a condition that tells them apart may be missing. Equal values may be shown once. Read-outs that look alike come from different tables or passages of the source.

T3 sequence (Q00959 23-1464, other chains not shown): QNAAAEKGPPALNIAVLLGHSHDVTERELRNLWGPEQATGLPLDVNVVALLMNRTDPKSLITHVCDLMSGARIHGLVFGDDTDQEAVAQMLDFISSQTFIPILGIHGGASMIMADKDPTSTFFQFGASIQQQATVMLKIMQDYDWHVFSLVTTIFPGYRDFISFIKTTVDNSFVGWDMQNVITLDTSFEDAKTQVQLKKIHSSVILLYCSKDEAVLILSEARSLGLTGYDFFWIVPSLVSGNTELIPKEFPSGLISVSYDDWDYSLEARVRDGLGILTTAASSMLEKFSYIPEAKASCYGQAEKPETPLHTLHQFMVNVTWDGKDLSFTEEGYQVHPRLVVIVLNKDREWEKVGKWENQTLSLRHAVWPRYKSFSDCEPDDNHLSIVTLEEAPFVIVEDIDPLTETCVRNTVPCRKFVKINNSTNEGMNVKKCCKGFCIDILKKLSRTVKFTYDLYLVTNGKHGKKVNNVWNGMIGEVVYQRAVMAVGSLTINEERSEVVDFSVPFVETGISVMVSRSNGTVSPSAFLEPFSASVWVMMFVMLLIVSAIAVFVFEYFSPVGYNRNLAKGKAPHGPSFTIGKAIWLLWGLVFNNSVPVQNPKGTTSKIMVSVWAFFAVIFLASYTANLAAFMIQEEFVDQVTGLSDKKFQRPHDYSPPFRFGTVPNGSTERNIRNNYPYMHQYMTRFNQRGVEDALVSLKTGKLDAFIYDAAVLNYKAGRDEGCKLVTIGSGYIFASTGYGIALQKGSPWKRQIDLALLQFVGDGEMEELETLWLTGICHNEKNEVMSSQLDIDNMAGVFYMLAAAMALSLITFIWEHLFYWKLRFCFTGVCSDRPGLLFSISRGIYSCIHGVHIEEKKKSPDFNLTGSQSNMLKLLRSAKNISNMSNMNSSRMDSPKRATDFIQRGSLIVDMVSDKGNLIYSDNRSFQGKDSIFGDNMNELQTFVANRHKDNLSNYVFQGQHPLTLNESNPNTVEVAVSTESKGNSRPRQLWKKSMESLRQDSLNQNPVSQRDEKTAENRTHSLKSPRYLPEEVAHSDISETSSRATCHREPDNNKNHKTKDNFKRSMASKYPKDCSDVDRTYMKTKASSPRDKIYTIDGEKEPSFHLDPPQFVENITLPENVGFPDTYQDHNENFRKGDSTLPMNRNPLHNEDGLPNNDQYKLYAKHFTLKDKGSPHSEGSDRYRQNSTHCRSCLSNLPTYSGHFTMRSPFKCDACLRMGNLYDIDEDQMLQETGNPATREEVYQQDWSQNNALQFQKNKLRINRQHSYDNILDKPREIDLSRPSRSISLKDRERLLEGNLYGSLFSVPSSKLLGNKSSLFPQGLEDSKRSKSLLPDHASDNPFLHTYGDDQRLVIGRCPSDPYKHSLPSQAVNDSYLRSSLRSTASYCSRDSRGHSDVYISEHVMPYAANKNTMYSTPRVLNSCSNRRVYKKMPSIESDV
T1 sequence (P62812 28-455): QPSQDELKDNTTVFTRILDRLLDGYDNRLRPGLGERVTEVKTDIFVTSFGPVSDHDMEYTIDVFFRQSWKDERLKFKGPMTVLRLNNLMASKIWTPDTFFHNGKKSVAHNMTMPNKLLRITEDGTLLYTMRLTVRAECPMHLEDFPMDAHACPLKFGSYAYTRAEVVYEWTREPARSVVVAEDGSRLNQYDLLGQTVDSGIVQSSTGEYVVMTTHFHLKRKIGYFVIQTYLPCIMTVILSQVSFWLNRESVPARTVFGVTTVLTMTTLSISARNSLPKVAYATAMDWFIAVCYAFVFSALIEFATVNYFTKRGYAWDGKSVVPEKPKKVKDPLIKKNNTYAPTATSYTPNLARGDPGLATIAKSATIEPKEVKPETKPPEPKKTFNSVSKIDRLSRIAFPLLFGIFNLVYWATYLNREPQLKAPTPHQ
T1 sequence (P63137 25-512 limits assumed): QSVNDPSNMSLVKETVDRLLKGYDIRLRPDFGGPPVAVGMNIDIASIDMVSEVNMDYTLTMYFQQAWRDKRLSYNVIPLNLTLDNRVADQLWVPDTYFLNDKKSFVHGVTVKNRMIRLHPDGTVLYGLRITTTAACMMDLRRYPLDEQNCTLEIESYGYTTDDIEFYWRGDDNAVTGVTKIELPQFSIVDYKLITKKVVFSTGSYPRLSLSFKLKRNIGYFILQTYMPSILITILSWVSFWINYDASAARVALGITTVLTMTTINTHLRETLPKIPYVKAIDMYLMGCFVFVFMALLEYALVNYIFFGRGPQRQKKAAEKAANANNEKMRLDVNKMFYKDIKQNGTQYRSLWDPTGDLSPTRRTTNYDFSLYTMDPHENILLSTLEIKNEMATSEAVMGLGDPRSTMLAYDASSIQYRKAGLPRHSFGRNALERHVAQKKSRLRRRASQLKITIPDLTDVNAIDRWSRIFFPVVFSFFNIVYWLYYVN
T1 sequence (P22723 39-474): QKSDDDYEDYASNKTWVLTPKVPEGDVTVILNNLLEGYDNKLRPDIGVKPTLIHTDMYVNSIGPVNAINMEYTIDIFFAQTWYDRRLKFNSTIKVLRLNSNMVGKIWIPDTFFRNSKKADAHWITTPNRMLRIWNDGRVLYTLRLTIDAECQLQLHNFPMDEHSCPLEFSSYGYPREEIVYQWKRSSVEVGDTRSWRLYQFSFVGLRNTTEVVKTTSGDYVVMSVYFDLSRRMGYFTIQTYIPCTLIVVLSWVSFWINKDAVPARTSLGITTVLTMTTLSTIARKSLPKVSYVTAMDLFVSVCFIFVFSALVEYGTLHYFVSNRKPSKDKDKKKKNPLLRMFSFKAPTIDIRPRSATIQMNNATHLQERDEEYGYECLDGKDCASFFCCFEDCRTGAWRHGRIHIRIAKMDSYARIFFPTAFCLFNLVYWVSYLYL
T2 sequence (P62812 28-455): as the sequence (P62812 28-455) above
T2 sequence (P63137 25-512 limits assumed): as the sequence (P63137 25-512 limits assumed) above
T2 sequence (P22723 39-474): as the sequence (P22723 39-474) above

Take `NCCCC(=O)O` [GABA]: in test [1] (−40 mV), the “Deactivation Tau” value was 216 ± 29 ms, the “Desensitization Extent (SS/Peak %)” value was 26.4 ± 1.8%, the “Desensitization Tau” value turned out to be 681 ± 130 ms and the “Response Peak Amplitude” value was 586 ± 150 pA. Also, the “Response Steady State Amplitude” value in test [1] (−40 mV) was found to be 170 ± 54 pA. In test [1] (−60 mV), the “Deactivation Tau” value came to 133 ± 6 ms, the “Desensitization Extent (SS/Peak %)” value came to 24.8 ± 1.1%, the “Desensitization Tau” value is given as 965 ± 298 ms and the “Response Peak Amplitude” value is reported as 173 ± 48 pA. Moreover, in test [2] (setting [5]), the “Deactivation Tau” value was determined as 129 ± 11 ms, the “Desensitization Extent (SS/Peak %)” value is recorded as 39.3 ± 2.0%, the “Response Peak Amplitude” value amounted to 133 ± 36 pA and the “Response Steady State Amplitude” value came to 51.1 ± 12.3 pA. In test [2] (setting [6]), the “Deactivation Tau” value is listed as 130 ± 27 ms, the “Desensitization Extent (SS/Peak %)” value turned out to be 31.8 ± 7.7%, the “Response Peak Amplitude” value was found to be 93.6 ± 6.8 pA and the “Response Steady State Amplitude” value amounted to 30.5 ± 8.1 pA.

For the compound `N[C@@H](CCC(=O)O)C(=O)O` [Glutamate, glutamate], in test [3], the “Deactivation Tau” value is 71.9 ± 11.0 ms, the “Desensitization Extent (SS/Peak %)” value is 34.2 ± 6.4%, the “Desensitization Tau” value amounted to 388 ± 75 ms and the “Response Peak Amplitude” value amounted to 271 ± 104 pA. For the same compound, in test [3], the “Response Steady State Amplitude” value is 130 ± 68 pA. Besides, in test [4], the “Deactivation Tau” value came to 81.3 ± 18.4 ms, the “Desensitization Extent (SS/Peak %)” value worked out at 54.8 ± 6.9%, the “Desensitization Tau” value worked out at 984 ± 192 ms and the “Response Peak Amplitude” value is 326 ± 180 pA. Further, the “Response Steady State Amplitude” value in test [4] was determined as 215 ± 139 pA.

With `CC(C)c1cccc(C(C)C)c1O` [propofol], the “Deactivation Tau” value is 143 ± 25 ms and 129 ± 12 ms in test [2]; 116 ± 13 ms in test [2] (setting [7]); 110 ± 15 ms in test [2] (setting [8]); 128 ± 13 ms in test [2] (setting [9]); 198 ± 29 ms in test [2] (setting [10]); 208 ± 20 ms in test [2] (setting [11]). The “Deactivation Tau” value in test [2] (setting [12]) stood at 328 ± 53 ms; in test [2] (setting [13]), 331 ± 21 ms; in test [2] (setting [14]), 415 ± 226 ms. The “Desensitization Extent (SS/Peak %)” value in test [2] is 41.8 ± 1.7% and 25.2 ± 13.5%; in test [2] (setting [7]), 39.6 ± 1.3%; in test [2] (setting [8]) it was 34.9 ± 6.7%; in test [2] (setting [9]) it was 40.0 ± 1.7%; in test [2] (setting [10]), 30.0 ± 5.1%; in test [2] (setting [11]), 43.1 ± 2.2%. Besides, the “Desensitization Extent (SS/Peak %)” value in test [2] (setting [12]) amounted to 25.2 ± 6.6%; in test [2] (setting [13]) it was 33.8 ± 2.7%. Further, in test [2], the 50% effective concentration (EC50) (commonly the midpoint of the concentration-response curve) was 11.8 ± 4.6 µM. Further, the “Response Peak Amplitude” value in test [2] (setting [7]) is reported as 100 ± 20 pA; in test [2] (setting [8]) it was 72.2 ± 18.0 pA; in test [2] (setting [9]), 109 ± 32 pA; in test [2] (setting [10]) it was 37.8 ± 9.1 pA; in test [2] (setting [11]), 96.0 ± 25.2 pA; in test [2] (setting [12]), 21.5 ± 4.6 pA. For the same compound, the figures for the “Response Peak Amplitude” value in test [2] (setting [13]) and in test [2] (setting [14]) were 63.9 ± 17.8 pA and 8.9 ± 1.2 pA, respectively. Further, the “Response Steady State Amplitude” value is reported as 40.4 ± 8.9 pA in test [2] (setting [7]); 24.2 ± 6.6 pA in test [2] (setting [8]); 45.6 ± 14.9 pA in test [2] (setting [9]); 11.1 ± 2.4 pA in test [2] (setting [10]); 42.1 ± 11.6 pA in test [2] (setting [11]); 6.1 ± 2.2 pA in test [2] (setting [12]). For the same compound, the “Response Steady State Amplitude” value in test [2] (setting [13]) was 23.5 ± 7.4 pA; in test [2] (setting [14]), 5.8 ± 7.5 pA.
